The target of one assay is RSL (Ralstonia pseudosolanacearum, UniProt Q8XXK6). The following applies: PBS, room temperature, lectin 0.05 mg/mL.
In a further assay the target is T1, AAL (Aleuria aurantia, UniProt P18891).
T1 construct: purchased freeze-dried (Vector Laboratories); dimer
T1 sequence (P18891 2-313): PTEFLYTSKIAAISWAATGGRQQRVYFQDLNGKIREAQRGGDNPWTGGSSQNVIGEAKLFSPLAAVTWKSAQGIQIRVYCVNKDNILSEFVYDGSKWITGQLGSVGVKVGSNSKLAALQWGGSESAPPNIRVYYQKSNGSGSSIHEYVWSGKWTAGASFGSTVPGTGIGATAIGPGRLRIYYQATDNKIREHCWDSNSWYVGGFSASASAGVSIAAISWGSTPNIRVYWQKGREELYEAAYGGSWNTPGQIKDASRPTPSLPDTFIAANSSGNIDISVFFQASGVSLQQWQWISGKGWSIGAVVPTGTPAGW
The assay is described as follows: hemagglutination inhibition, microscope detection. The assay is classed as biochemical. The following applies: PBS, room temperature, lectin 0.05 mg/mL. The source says: hemagglutination inhibition, microscope detection on AAL

The target in another assay is T2, PA-IIL (LecB) (Pseudomonas aeruginosa, UniProt Q9HYN5).
T2 construct: recombinant in E. coli, D-mannose-agarose purified; homotetramer, two calcium ions per site
T2 sequence (Q9HYN5 entry or part of it): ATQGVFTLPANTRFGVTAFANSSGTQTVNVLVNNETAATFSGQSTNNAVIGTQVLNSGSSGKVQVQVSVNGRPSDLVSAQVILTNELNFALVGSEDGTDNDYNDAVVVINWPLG
The assay is described as follows: hemagglutination inhibition, microscope detection. The assay is classed as biochemical. To be noted: 20 mM Tris/HCl, 150 mM NaCl, 5 mM CaCl2, pH 7.5, room temperature, lectin 1.25 mg/mL. The source says: hemagglutination inhibition, microscope detection on PA-IIL (LecB)

For a further assay, the target named is T3, AFL (Aspergillus fumigatus, UniProt Q4WW81).
T3 construct: gene fleA; dimer of six-bladed beta-propellers
T3 sequence (Q4WW81 whole entry): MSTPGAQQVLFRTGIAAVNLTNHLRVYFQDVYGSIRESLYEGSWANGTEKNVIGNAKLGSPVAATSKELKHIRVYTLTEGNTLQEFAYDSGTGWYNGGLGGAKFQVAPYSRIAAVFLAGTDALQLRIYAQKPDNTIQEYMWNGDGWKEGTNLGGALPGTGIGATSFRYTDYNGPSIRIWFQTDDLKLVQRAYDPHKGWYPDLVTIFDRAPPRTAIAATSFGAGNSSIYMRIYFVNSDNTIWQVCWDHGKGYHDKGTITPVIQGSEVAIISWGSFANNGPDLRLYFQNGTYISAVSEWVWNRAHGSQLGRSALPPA
Kind of assay: hemagglutination inhibition, microscope detection. It counts as biochemical. To be noted: PBS; room temperature; lectin 0.05 mg/mL; valency 1. The source says:
hemagglutination inhibition, microscope detection on AFL

The next assay addresses T4, AOL (Aspergillus oryzae, UniProt Q2UNX8).
T4 construct: gene fleA; purchased freeze-dried (TCI); dimer
T4 sequence (Q2UNX8 1-311): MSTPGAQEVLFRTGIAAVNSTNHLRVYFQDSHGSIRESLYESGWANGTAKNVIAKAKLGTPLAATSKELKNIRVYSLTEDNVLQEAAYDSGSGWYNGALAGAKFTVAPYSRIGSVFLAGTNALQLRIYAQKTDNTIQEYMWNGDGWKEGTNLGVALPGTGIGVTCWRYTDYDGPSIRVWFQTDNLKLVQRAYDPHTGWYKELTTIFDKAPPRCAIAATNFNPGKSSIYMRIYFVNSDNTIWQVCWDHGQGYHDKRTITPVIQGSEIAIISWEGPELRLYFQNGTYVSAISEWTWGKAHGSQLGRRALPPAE
The assay is described as follows: hemagglutination inhibition, microscope detection. To be noted: PBS, room temperature, lectin 0.05 mg/mL. The assay is classed as biochemical. The source says:
hemagglutination inhibition, microscope detection on AOL

The next assay has as its target T5, BC2L-C (Burkholderia cenocepacia, UniProt B4EH86).
T5 construct: gene BCAM0185; recombinant in E. coli; D-mannose-agarose purified; N-terminal domain (fucose site) is a trimer
The assay is described as follows: hemagglutination inhibition, microscope detection. The assay is classed as biochemical. The following applies: human 0+ papain-treated red blood cells, 20 mM Tris/HCl, 150 mM NaCl, 5 mM CaCl2, pH 7.5, room temperature, lectin 0.1 mg/mL, semi-quantitative. The source says:
hemagglutination inhibition, microscope detection on BC2L-C

Where two headings read alike, the source gives them in different places.

T5 sequence (B4EH86 entry or part of it): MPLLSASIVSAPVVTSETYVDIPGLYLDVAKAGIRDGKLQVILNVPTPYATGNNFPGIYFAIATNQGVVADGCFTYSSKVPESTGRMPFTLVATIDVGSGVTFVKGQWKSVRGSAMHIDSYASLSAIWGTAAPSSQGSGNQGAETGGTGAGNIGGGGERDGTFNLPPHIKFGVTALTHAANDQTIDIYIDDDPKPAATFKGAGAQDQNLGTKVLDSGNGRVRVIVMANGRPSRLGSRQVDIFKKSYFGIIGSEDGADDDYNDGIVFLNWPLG

Regarding `C[C@@H]1O[C@@H](OCc2cn(CCN=[N+]=[N-])nn2)[C@@H](O)[C@H](O)[C@@H]1O` [compound 12, Compound 12], the “RSL / Potency” value at RSL (valency 1) stood at 32 fold vs L-fucose.

For the molecule `C[C@@H]1O[C@@H](OCc2cn(CCOCCOCCOCCn3cc(CO[C@@H]4O[C@@H](C)[C@@H](O)[C@@H](O)[C@@H]4O)nn3)nn2)[C@@H](O)[C@H](O)[C@@H]1O` [compound 14, Compound 14], on RSL (valency 2), the “RSL / Potency” value amounted to 128 fold vs L-fucose.

As for `C[C@@H]1O[C@@H](SCCO)[C@@H](O)[C@H](O)[C@@H]1O` [compound 21, Compound 21], the “AFL / Potency” value on AAL (valency 1) and at AFL was 2 fold vs L-fucose each time. In addition, the “RSL / Potency” value on PA-IIL (LecB) (valency 1) came to 4 fold vs L-fucose; on RSL (valency 1), 4 fold vs L-fucose; at AOL (valency 1) it was 4 fold vs L-fucose; on BC2L-C (valency 4 buffer and lectin concentration, valency 1), 4 fold vs L-fucose.

Regarding `C#CCO[C@@H]1O[C@@H](C)[C@@H](O)[C@@H](O)[C@@H]1O` [compound 11, Compound 11], the “AFL / Potency” value at AAL (valency 1), at PA-IIL (LecB) (valency 1), at AFL and on AOL (valency 1) was 4 fold vs L-fucose throughout. Further, the “RSL / Potency” value at RSL (valency 1) is reported as 8 fold vs L-fucose.

Turning to `C[C@@H]1O[C@@H](OCc2cn(CCOCCOCCOCCn3cc(COCC(COCc4cn(CCOCCOCCOCCn5cc(CO[C@@H]6O[C@@H](C)[C@@H](O)[C@@H](O)[C@@H]6O)nn5)nn4)(COCc4cn(CCOCCOCCOCCn5cc(CO[C@@H]6O[C@@H](C)[C@@H](O)[C@@H](O)[C@@H]6O)nn5)nn4)COCc4cn(CCOCCOCCOCCn5cc(CO[C@@H]6O[C@@H](C)[C@@H](O)[C@@H](O)[C@@H]6O)nn5)nn4)nn3)nn2)[C@@H](O)[C@H](O)[C@@H]1O` [compound 2, Compound 2], the “AFL / Potency” value on AAL (valency 4) is on record as 128 fold vs L-fucose. In addition, the “AFL / β^#” value at PA-IIL (LecB) (valency 4) stood at 32 fold vs L-fucose. The “RSL / Potency” value on RSL (valency 4) came to 1024 fold vs L-fucose. Moreover, the “RSL / β^#” value on AOL (0+ papain-treated red blood cells, semi-quantitative, valency 4) is reported as 256 fold vs L-fucose. The “BC2L-C / Potency” value on BC2L-C (valency 4) was determined as 16 fold vs L-fucose.

Regarding `C[C@@H]1O[C@@H](SCCS(=O)(=O)O)[C@@H](O)[C@H](O)[C@@H]1O` [compound 22, Compound 22], the “RSL / Potency” value at BC2L-C (valency 4) is listed as 4 fold vs L-fucose.
